Reference: ChEMBL document CHEMBL5260807, “Discovery of liver-directed glucokinase activator having anti-hyperglycemic effect without hypoglycemia” (Eur J Med Chem, 2017)
Blank lines part the entries; values can stand above or below the compound they belong to.

What was measured:
[1] = Drug uptake in C57BL/6J mouse plasma at 30 mg/kg,po and measured after 3 hrs; assay type: ADME, organism-based
Hexokinase-4 = target: T1, Hexokinase-4 (Homo sapiens, UniProt P35557); assay: Activation of recombinant human glucokinase assessed as increase in maximal activation by measuring accumulation of NADH in presence of S0.5 of glucose and NAD by plate reader analysis
T1 sequence (P35557 whole entry): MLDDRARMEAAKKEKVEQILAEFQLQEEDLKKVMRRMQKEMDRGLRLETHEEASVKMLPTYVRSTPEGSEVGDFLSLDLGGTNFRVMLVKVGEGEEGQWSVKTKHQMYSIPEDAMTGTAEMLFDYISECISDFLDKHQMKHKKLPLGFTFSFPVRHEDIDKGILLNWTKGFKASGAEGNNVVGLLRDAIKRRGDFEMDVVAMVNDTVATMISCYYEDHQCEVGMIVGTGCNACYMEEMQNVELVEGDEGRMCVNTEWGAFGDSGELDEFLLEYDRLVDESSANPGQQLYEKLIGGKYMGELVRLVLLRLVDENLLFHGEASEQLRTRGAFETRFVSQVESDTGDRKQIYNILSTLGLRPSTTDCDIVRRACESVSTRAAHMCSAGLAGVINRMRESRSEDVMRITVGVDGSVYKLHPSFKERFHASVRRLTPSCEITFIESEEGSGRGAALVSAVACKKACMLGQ

[2] = Drug uptake in C57BL/6J mouse plasma at 30 mg/kg,po and measured after 1 hrs; assay type: ADME, organism-based
[3] = Drug distribution in C57BL/6J mouse liver at 30 mg/kg,po and measured after 3 hrs by LC-MS/MS analysis; assay type: ADME, organism-based; conditions: read-out: Drug uptake
[4] = Drug distribution in C57BL/6J mouse liver at 30 mg/kg,po and measured after 1 hrs by LC-MS/MS analysis; assay type: ADME, organism-based; conditions: read-out: Drug uptake
[5] = target: T2, Hexokinase-4 (Rattus norvegicus) (UniProt P17712); assay: Activation of glucokinase in rat Primary hepatocytes assessed as fold increase in glycogen synthesis at 10 uM incubated for 30 mins using [U14C]-D-glucose as substrate by Microbeta TriLux luminescence counter analysis; assay type: cell-based; conditions: Primary hepatocyte, filed as activator
T2 sequence (whole entry): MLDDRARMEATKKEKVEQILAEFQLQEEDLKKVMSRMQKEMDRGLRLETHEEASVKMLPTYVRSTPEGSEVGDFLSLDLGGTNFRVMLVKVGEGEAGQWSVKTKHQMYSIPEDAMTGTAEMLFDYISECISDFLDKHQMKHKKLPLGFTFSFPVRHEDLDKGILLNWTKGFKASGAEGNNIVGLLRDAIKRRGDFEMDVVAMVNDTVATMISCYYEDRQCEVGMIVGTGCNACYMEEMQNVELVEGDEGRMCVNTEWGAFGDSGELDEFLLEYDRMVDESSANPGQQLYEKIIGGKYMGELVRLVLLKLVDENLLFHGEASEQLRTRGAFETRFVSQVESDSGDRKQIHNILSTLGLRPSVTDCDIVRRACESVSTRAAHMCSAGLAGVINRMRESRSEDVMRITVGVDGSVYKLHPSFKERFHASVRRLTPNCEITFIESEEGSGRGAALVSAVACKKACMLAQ

[6] = Clearance in C57BL/6J mouse at 1 mg/kg,iv and measured after 2 hrs by LC-MS/MS analysis; assay type: ADME, organism-based; conditions: in vivo
Mus musculus [7] = assay: Anti-hyperglycemic activity against diet induced obese C57BL/6J mouse assessed as blood glucose level at 10 to 300 mg/kg ,po and measured upto 180 mins by OGTT; assay type: functional, organism-based; conditions: dose 10-300 mg/kg
[8] = Drug distribution in C57BL/6J mouse in circulatory system at 30 mg/kg,po and measured after 3 hrs; assay type: ADME, organism-based; conditions: read-out: Drug uptake
[9] = AUC(0 to 24 hrs) in C57BL/6J mouse at 30 mg/kg,po and measured after 2 hrs by LC-MS/MS analysis; assay type: ADME, organism-based; design: time 2 hrs, dose 30 mg/kg, route po; conditions: in vivo
[10] = Drug uptake in mouse hepatocytes at 1 to 100 uM incubated for 5 mins at 4 degreeC by LC-MS/MS analysis; assay type: ADME, cell-based, Hepatocyte; conditions: dose 1-100 µM
[11] = Inhibition of drug uptake in mouse hepatocytes at 1 to 100 uM incubated for 5 mins in presence of rifamycin SV by LC-MS/MS analysis; assay type: cell-based, Hepatocyte; conditions: dose 1-100 µM
[12] = Cmax in C57BL/6J mouse at 30 mg/kg,po and measured after 2 hrs by LC-MS/MS analysis; assay type: ADME, organism-based; design: dose 30 mg/kg, time 2 hrs, route po; conditions: in vivo
[13] = Oral bioavailability in C57BL/6J mouse at 30 mg/kg and measured after 2 hrs by LC-MS/MS analysis; assay type: ADME, organism-based; conditions: in vivo
[14] = Drug uptake in mouse hepatocytes at 1 to 100 uM incubated for 5 mins at 37 degreeC by LC-MS/MS analysis; assay type: ADME, cell-based, Hepatocyte; conditions: dose 1-100 µM
[15] = Drug distribution in C57BL/6J mouse in circulatory system at 30 mg/kg,po and measured after 1 hrs by LC-MS/MS analysis; assay type: ADME, organism-based; conditions: read-out: Drug uptake
[16] = Hypoglycemic activity in normoglycemic C57BL/6J mouse assessed as decrease in blood glucose level at 100 mg/kg ,po and measured upto 180 mins by glucose analysis; assay type: toxicity, organism-based; conditions: in vivo, 3 h
[17] = Half life in C57BL/6J mouse at 1 mg/kg,iv and measured after 2 hrs by LC-MS/MS analysis; assay type: ADME, organism-based; conditions: in vivo
[18] = Volume of distribution at steady state in C57BL/6J mouse at 1 mg/kg,iv and measured after 2 hrs by LC-MS/MS analysis; assay type: ADME, organism-based; conditions: in vivo, read-out: Vdss
[19] = Clearance in C57BL/6J mouse at 3 mg/kg,iv and measured after 2 hrs by LC-MS/MS analysis; assay type: ADME, organism-based; conditions: in vivo
[20] = Hypoglycemic activity in normoglycemic C57BL/6J mouse at 300 mg/kg ,po and measured upto 180 mins by glucose analysis; assay type: toxicity, organism-based; conditions: in vivo, 3 h
[21] = Half life in C57BL/6J mouse at 3 mg/kg,iv and measured after 2 hrs by LC-MS/MS analysis; assay type: ADME, organism-based; conditions: in vivo
[22] = AUC(0 to t) in C57BL/6J mouse at 30 mg/kg,po; assay type: ADME, organism-based; design: dose 30 mg/kg, route po; conditions: in vivo
Mus musculus [23] = assay: Anti-hyperglycemic activity against diet induced obese C57BL/6J mouse assessed as reduction in AUCglucose level at 100 mg/kg ,po and measured upto 180 mins by OGTT; assay type: functional; design: scale not given: the % may be the effect or the level left; conditions: 3 h
[24] = Volume of distribution at steady state in C57BL/6J mouse at 3 mg/kg,iv and measured after 2 hrs by LC-MS/MS analysis; assay type: ADME, organism-based; conditions: in vivo, read-out: Vdss
[25] = Hypoglycemic activity in normoglycemic C57BL/6J mouse assessed as decrease in blood glucose level at 300 mg/kg ,po and measured upto 180 mins by glucose analysis; assay type: toxicity, organism-based; conditions: in vivo, 3 h
Mus musculus [26] = assay: Anti-hyperglycemic activity against diet induced obese C57BL/6J mouse assessed as reduction in AUCglucose level at 30 mg/kg ,po and measured upto 180 mins by OGTT; assay type: functional; design: scale not given: the % may be the effect or the level left; conditions: 3 h
[27] = target: T3, Hexokinase-4 (Homo sapiens) (UniProt P35557); assay: Activation of recombinant human glucokinase assessed as increase in maximal activation by measuring accumulation of NADH at 60 uM in presence of S0.5 of glucose and NAD by plate reader analysis; conditions: filed as activator
T3 sequence (whole entry): T1 sequence (P35557 whole entry)

SMILES: CC(C)(Oc1ccc(F)cc1F)C(=O)Nc1ncc(Oc2ccc(C(=O)O)cc2)s1
concentration at 3 h [1]: 1.4 µM
EC50 (Hexokinase-4): 6200 nM
concentration at 1 h [2]: 8.8 µM
concentration at 3 h [3]: 11.1 µM
concentration at 1 h [4]: 23.3 µM

SMILES: O=C(O)c1cccc(Oc2cnc(NC(=O)C(Oc3ccc(F)cc3F)c3ccc(S(=O)(=O)C4CC4)cc3)s2)c1 (centres undefined)
EC50 (Hexokinase-4): 2730 nM

SMILES: O=C(O)C#Cc1cnc(NC(=O)C(Oc2ccc(F)cc2F)c2ccc(S(=O)(=O)C3CC3)cc2)s1 (centres undefined)
EC50 (Hexokinase-4): 2300 nM

SMILES: O=C(Nc1ncc(CN2CCCC2C(=O)O)s1)C(Oc1ccc(F)cc1F)c1ccc(S(=O)(=O)C2CC2)cc1 (centres undefined)
EC50 (Hexokinase-4): > 10000 nM

SMILES: CC(C)(Oc1ccc(F)cc1F)C(=O)Nc1nc(CC(=O)O)c(Cl)s1
clearance [6]: 3.5 mL/min/kg
Activity (Mus musculus [7]): Dose-Dependent Effect
concentration at 3 h [8]: 85 µM
AUC(0-t) at 2 h [9]: 802 µM·h
Drug uptake [10]: 5%
EC50 (Hexokinase-4): 7000 nM
inhibition (INH) ([11]; hepatocytes, 5 min, 100 µM): Not Active
Cmax [12]: 326 µM
bioavailability [13]: 100%
Drug uptake [14]: < 5%
concentration at 1 h [15]: 220 µM
Activity [16]: < 60 mg/dL
concentration at 3 h [3]: 104 µM
concentration at 1 h [4]: 111 µM
half-life [17]: 1 h
Vd [18]: 0.4 L/kg

SMILES: O=C(O)c1ccc(Oc2cnc(NC(=O)C(Oc3ccc(F)cc3F)c3ccc(S(=O)(=O)N4CCCCC4)cc3)s2)cc1 (centres undefined)
fold change (FC) [5]: 3.4

SMILES: O=C(O)C1CCN(Cc2cnc(NC(=O)C(Oc3ccc(F)cc3F)c3ccc(S(=O)(=O)C4CC4)cc3)s2)CC1 (centres undefined)
EC50 (Hexokinase-4): > 10000 nM

SMILES: CC(Oc1ccc(F)cc1F)(C(=O)Nc1nc(CC(=O)O)c(Cl)s1)c1ccc(S(=O)(=O)N2CCCCC2)cc1 (centres undefined)
EC50 (Hexokinase-4): > 20000 nM
Activity [27]: 60%

Second part, led by results:

EC50 (Hexokinase-4): 400 nM
SMILES: O=C(O)Cc1ccc(Oc2cnc(NC(=O)C(Oc3ccc(F)cc3F)c3ccc(S(=O)(=O)C4CC4)cc3)s2)cc1 (centres undefined)

EC50 (Hexokinase-4): 330 nM
fold change (FC) [5]: 3
SMILES: O=C(O)c1ccc(Oc2cnc(NC(=O)C(Oc3ccc(F)cc3F)c3ccc(S(=O)(=O)N4CCOCC4)cc3)s2)cc1 (centres undefined)

EC50 (Hexokinase-4): 310 nM
fold change (FC) [5]: 3.04
SMILES: O=C(O)c1ccc(Oc2cnc(NC(=O)C(Oc3ccc(F)cc3F)c3ccc(S(=O)(=O)C4CCOCC4)cc3)s2)cc1 (centres undefined)

EC50 (Hexokinase-4): 190 nM
fold change (FC) [5]: 11.4
SMILES: O=C(O)c1ccc(Oc2cnc(NC(=O)C(Oc3ccc(F)cc3F)c3ccc(S(=O)(=O)C4CC4)cc3)s2)cc1 (centres undefined)

EC50 (Hexokinase-4): 450 nM
SMILES: O=C(O)c1ccc(Cc2cnc(NC(=O)C(Oc3ccc(F)cc3F)c3ccc(S(=O)(=O)C4CC4)cc3)s2)cc1 (centres undefined)

clearance [19]: 32.6 mL/min/kg
concentration at 3 h [8]: 2.7 µM
Drug uptake [10]: < 5%
EC50 (Hexokinase-4): 34 nM
inhibition at 5 min, up to 100 µM ([11]; mouse hepatocytes, with rifamycin SV): 90%
Cmax [12]: 13.3 µM
bioavailability [13]: 86%
Drug uptake [14]: 30%
fold change (FC) [5]: 12.2
concentration at 1 h [15]: 6 µM
half-life [21]: 2.16 h
AUC(0-t) [22]: 22 µM·h
concentration at 3 h [3]: 184 µM
concentration at 1 h [4]: 215 µM
Vd [24]: 1.67 L/kg
SMILES: O=C(O)c1ccc(Oc2cnc(NC(=O)[C@H](Oc3ccc(F)cc3F)c3ccc(S(=O)(=O)C4CC4)cc3)s2)cc1
Activity [20]: Not Active
Activity (Mus musculus [23]): 34%
Activity [25]: Active
Activity (Mus musculus [26]): 21%

EC50 (Hexokinase-4): 500 nM
SMILES: O=C(O)Cc1nc(NC(=O)C(Oc2ccc(F)cc2F)c2ccc(S(=O)(=O)N3CCCCC3)cc2)sc1Cl (centres undefined)

EC50 (Hexokinase-4): 240 nM
fold change (FC) [5]: 3.76
SMILES: O=C(O)c1ccc(Oc2cnc(NC(=O)C(Oc3ccc(F)cc3F)c3ccc(S(=O)(=O)N4CCCC4)cc3)s2)cc1 (centres undefined)

EC50 (Hexokinase-4): 690 nM
SMILES: O=C(O)c1ccc(Oc2cnc(NC(=O)[C@@H](Oc3ccc(F)cc3F)c3ccc(S(=O)(=O)C4CC4)cc3)s2)cc1
